# Structures can show the parent of a compound that is named as a salt. Activity calls are given as the source filed them.
# Key:
# [1] = target: T1, Carboxy-terminal domain RNA polymerase II polypeptide A small phosphatase 1 (Homo sapiens, UniProt Q9GZU7); assay: CTDSP1 inhibitors, concentration-response, biochemical, absorbance readout, ultra-high-throughput screen actives (AID 540297); type: functional
# T1 sequence (Q9GZU7 whole entry): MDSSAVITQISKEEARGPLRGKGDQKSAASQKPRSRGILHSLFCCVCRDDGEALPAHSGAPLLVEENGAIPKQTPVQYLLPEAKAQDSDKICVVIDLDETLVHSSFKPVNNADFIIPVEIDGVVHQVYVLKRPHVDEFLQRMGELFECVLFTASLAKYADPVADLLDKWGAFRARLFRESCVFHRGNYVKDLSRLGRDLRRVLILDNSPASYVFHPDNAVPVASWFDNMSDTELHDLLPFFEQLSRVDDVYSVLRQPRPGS
# [2] = Trypanosoma cruzi growth suppression in host cells – NIH3T3 host cells, beta-gal luminescence, confirmation (AID 2044); type: functional, cell-based;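 also: intracellular parasites grown in NIH/3T3 mouse fibroblasts as host cells; luminescent beta-galactosidase reporter signal from transgenic T. cruzi replicating inside host cells; inhibitors lower the luminescence signal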
# [3] = microbe, parasite or virus in culture; type: functional; conditions: Mycobacterium tuberculosis
# [4] = NIH3T3 cell viability loss – ATP luminescence, mouse fibroblasts, counter-screen, dose response (AID 2010); type: functional, cell-based;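 also: cells exposed to compound for about 90 hours before reading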
# [5] = target: T2, High affinity choline transporter 1 (Homo sapiens, UniProt Q9GZV3); assay: human choline transporter blockers, potency – cell-based, 5-point CRC, membrane potential dye, dose response (AID 504840); type: functional
# T2 sequence (Q9GZV3 whole entry): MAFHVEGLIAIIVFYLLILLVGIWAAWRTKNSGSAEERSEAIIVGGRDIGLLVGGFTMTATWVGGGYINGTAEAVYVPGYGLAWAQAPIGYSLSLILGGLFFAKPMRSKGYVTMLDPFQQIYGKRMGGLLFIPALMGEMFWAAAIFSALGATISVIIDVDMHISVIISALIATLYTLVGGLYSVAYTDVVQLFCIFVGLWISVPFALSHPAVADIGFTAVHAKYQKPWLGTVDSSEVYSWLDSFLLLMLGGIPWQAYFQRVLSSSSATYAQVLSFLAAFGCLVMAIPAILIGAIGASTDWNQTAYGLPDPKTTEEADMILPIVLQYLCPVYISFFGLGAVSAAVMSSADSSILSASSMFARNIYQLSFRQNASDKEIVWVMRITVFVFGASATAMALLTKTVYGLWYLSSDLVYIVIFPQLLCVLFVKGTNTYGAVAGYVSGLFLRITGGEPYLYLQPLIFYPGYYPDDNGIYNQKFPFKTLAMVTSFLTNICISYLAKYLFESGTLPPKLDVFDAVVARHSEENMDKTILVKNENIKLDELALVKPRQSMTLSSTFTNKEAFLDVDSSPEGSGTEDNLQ
# SUMO-activating enzyme = SUMO-activating enzyme (Homo sapiens, UniProt Q9UBT2); assay: blockers of UBC9-mediated SUMO conjugation – biochemical, AlphaScreen, SUMOylation inhibitor project, confirmation (AID 2018); type: functional
# SUMO-activating enzyme, sequence (Q9UBE0 whole entry): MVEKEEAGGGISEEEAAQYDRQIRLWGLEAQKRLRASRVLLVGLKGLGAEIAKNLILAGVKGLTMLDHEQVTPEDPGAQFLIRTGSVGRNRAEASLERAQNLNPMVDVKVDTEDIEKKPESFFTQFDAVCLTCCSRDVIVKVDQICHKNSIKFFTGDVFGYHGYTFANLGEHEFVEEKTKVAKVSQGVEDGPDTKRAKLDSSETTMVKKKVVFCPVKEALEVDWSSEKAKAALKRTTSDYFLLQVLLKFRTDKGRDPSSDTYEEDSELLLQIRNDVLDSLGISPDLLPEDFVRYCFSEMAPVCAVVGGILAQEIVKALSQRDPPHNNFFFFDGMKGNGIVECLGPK
# SUMO-activating enzyme, sequence (Q9UBT2 whole entry): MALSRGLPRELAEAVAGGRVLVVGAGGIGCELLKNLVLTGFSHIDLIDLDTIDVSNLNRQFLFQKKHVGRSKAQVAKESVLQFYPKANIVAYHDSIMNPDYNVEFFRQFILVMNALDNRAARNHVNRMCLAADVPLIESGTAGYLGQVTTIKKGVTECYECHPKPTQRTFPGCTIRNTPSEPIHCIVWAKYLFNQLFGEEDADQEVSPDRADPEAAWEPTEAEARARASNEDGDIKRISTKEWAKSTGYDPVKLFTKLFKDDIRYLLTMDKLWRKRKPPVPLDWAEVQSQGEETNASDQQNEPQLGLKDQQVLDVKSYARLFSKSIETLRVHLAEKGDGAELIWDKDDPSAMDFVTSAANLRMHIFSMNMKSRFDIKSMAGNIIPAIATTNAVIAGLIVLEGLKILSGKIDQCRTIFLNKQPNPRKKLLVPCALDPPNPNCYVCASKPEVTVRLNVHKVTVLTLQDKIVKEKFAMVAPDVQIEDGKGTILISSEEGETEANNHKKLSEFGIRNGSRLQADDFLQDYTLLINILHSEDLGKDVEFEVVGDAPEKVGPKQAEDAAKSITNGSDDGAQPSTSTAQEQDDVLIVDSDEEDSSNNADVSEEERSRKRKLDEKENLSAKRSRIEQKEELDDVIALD
# Cytochrome P450 2C9 = Cytochrome P450 2C9 (Homo sapiens, UniProt P11712)
# Cytochrome P450 2C9, sequence (P11712 whole entry): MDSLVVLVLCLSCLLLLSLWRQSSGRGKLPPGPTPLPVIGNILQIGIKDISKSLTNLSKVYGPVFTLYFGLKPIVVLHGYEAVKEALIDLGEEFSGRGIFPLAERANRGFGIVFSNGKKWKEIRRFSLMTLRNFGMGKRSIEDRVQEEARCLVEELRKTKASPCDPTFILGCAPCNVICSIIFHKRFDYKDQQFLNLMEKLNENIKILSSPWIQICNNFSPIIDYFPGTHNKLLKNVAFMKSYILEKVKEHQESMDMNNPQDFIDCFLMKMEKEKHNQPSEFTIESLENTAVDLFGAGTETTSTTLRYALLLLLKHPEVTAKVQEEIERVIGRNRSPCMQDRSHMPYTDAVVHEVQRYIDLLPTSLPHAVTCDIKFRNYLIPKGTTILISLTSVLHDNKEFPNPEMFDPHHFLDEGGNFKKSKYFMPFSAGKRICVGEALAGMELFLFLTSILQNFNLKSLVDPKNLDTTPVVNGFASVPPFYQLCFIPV
# Estrogen receptor = target: T3, Estrogen receptor (Homo sapiens, UniProt P03372);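 also: potency for inhibiting coactivator peptide recruitment to the receptor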
# T3 sequence (P03372 whole entry): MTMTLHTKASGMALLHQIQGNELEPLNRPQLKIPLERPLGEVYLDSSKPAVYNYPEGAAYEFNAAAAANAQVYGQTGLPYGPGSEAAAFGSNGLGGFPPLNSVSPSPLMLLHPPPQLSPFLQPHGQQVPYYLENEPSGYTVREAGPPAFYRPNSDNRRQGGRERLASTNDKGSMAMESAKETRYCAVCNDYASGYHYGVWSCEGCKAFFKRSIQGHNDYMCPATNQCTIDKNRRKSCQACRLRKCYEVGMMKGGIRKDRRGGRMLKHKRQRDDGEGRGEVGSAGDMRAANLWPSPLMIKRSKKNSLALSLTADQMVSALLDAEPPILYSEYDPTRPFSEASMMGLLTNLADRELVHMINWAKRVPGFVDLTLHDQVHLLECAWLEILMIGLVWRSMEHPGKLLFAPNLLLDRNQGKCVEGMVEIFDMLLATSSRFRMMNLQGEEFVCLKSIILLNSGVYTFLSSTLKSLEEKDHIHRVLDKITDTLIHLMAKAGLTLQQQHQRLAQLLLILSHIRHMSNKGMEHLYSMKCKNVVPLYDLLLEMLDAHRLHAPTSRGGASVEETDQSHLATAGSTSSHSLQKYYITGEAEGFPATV
# [6] = target: T4, E3 ubiquitin-protein ligase XIAP (Homo sapiens, UniProt P98170); assay: Counter Screen using XIAP-Bir3 for Chemical Antagonists of Bir1/2 domains of IAP-family anti-apoptotic proteins. [Related pubchem assays (depositor defined):AID1018, AID1449, AID1514, AID1638, AID1749, AID1750, AID488957, AID488963]
# T4 sequence (P98170 whole entry): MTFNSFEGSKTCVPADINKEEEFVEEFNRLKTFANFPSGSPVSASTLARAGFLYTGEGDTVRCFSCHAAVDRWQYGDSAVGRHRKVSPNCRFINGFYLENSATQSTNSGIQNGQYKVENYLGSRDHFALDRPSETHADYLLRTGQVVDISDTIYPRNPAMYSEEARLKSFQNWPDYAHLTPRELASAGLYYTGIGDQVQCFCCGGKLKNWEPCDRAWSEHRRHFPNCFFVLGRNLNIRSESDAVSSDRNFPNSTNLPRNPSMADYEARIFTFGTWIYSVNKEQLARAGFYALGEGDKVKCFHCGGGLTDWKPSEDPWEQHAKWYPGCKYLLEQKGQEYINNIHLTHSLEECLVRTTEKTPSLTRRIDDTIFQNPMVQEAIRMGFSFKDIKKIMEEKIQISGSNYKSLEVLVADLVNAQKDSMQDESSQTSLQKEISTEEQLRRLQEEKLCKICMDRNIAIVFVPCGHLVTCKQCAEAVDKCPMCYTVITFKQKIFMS
# [7] = target: T4, E3 ubiquitin-protein ligase XIAP; assay: small molecules displacing peptide from XIAP – biochemical, IAP family, fluorescence polarization (AID 1018); type: functional
# H9c2 = assay: cells; type: functional, cell-based; conditions: Rattus norvegicus, H9c2, Myocardium;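 also: confirmatory concentration-response retest of ultra-high-throughput screening hits for modulation of myocardial damage; cell death induced by hydrogen peroxide oxidative stress; compound pretreatment for 60 min then peroxide exposure for 2 h; potency is for protecting the cells against peroxide damage rather than for killing them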
# [8] = viability of uninfected HEp-2 cells – cell-based, HTS, cytotoxicity control for RSV inhibitor project, dose response (AID 2410); type: functional; conditions: human respiratory syncytial virus
# Protein Wnt-3a = Protein Wnt-3a (Mus musculus, UniProt P27467); assay: antagonism of Wnt3a pathway luciferase reporter – Wnt-LIGHT cells, luminescence, selectivity assay for Gli-SUFU antagonist project, dose response (AID 651570); type: functional; conditions: read-out: IC50_Mean;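 also: Wnt-LIGHT reporter cells stimulated with conditioned medium from Wnt3a-producing cells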
# Protein Wnt-3a, sequence (P27467 whole entry): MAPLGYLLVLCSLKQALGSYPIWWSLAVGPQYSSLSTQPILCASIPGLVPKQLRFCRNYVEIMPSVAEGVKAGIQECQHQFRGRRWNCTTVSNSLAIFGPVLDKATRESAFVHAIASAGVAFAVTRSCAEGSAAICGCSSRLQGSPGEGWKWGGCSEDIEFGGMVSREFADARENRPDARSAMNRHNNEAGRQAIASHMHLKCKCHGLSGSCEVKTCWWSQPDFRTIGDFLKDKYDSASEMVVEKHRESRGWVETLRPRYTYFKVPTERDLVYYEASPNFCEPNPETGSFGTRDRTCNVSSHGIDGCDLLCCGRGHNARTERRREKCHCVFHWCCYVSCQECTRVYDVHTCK
# INS1 = assay: INS-1E survival protection against cytokine death – cell-based, luminescence, retest, dose response (AID 449756); type: functional; conditions: Rattus norvegicus;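 also: cell death triggered by IL-1 beta plus TNF-alpha plus IFN-gamma mixture; protective hits raise ATP signal compared with cytokine alone wells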
# Cytochrome P450 3A4 = Cytochrome P450 3A4 (Homo sapiens, UniProt P08684); conditions: Potency;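 also: confirmatory qHTS run detecting inhibitors and substrates of CYP3A4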
# Cytochrome P450 3A4, sequence (P08684 whole entry): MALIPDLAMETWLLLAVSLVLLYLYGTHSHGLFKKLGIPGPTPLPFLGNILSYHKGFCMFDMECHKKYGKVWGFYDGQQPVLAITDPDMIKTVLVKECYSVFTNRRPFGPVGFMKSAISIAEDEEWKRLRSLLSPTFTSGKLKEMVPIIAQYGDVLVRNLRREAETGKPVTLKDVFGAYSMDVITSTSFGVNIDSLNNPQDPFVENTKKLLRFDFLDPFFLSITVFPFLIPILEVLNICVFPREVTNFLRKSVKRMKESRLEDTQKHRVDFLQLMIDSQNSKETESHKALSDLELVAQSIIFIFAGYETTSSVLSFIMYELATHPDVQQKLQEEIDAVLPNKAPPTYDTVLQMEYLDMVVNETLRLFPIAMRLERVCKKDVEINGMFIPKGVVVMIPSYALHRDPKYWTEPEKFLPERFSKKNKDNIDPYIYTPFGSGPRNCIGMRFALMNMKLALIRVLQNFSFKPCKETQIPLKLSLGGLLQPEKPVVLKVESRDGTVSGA
# HEK293 [9] = assay: inhibition of NOD1-driven NF-kB reporter – cell-based, luminescence, uHTS, primary screen (AID 1578); type: functional; conditions: Homo sapiens
# HEK293 [10] = assay: cells; type: functional, cell-based; conditions: Homo sapiens
# HEK293 [11] = assay: cells; type: functional, cell-based; conditions: Homo sapiens; remark: listed apart in the source
# HEK293 [12] = assay: NOD2 signaling inhibitors in MDP-stimulated cells, cell-based, uHTS, luminescence (AID 2001); type: functional; conditions: Homo sapiens
# [13] = bead-based luminescence quenchers, dual-tagged ARNT – biochemical, AlphaScreen, cherry-pick, artefact control for ARNT-TACC3 interaction inhibitor project, dose response (AID 651705); type: functional;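 also: AlphaScreen bead proximity signal that flags compounds interfering with the detection technology; potency reflects signal decrease which marks the compound as an assay artifact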
# Nonstructural protein 1 = Nonstructural protein 1 (Influenza A virus, UniProt Q194T2); type: functional, Influenza A virus (A/California/07/2009(H1N1))
# Nonstructural protein 1, sequence (Q194T2 whole entry): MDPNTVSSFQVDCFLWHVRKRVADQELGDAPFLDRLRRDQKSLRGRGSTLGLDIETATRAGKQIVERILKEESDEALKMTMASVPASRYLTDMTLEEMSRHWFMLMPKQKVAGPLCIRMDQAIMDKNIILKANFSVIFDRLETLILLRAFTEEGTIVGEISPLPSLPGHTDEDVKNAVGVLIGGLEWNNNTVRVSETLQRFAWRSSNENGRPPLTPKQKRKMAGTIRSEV
# HEK293 [14] = assay: EBV LMP1 TES2 canonical NF-kB signalling blockers – cell-based, HEK293, luciferase, cherry-pick, dose response (AID 588343); type: functional; conditions: Homo sapiens
# [15] = target: T5, Rac GTPase-activating protein 1 (Homo sapiens, UniProt Q9H0H5); assay: blockers of MgcRacGAP-driven Rac1 GTP hydrolysis – biochemical, ADP Hunter fluorescence, primary and confirmatory, confirmation (AID 624330); type: functional
# T5 sequence (Q9H0H5 whole entry): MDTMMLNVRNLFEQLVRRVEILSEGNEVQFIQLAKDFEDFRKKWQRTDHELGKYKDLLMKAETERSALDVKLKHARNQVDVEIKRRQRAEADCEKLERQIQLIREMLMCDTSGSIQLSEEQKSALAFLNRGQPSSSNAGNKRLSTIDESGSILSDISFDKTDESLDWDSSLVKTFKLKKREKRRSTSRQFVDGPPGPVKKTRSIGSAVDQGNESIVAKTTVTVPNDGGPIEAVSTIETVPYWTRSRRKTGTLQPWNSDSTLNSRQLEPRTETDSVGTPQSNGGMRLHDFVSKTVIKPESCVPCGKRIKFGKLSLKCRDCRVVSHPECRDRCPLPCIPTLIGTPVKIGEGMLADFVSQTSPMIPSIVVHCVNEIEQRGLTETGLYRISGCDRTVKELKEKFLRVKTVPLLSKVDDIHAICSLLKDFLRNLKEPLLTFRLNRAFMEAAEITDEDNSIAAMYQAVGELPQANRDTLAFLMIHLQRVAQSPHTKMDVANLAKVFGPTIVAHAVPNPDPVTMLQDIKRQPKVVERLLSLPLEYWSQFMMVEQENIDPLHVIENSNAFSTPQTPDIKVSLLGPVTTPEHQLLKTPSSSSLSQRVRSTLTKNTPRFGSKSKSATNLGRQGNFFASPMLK
# [16] = blockers of HIV-1 envelope-mediated cell-cell fusion – cherry-pick, dose response (AID 652057); type: functional, cell-based
# [17] = viability loss in CEM21 cells – cell-based, CellTiter-Glo luminescence, cherry-picked, cytotoxicity control for viral fusion inhibitor project, dose response (AID 652042); type: functional;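 also: potency for signal decrease meaning cytotoxicity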
# [18] = HIV-1 AD8 envelope cell-cell fusion blockers – cherry-pick, dose response (AID 652062); type: functional, cell-based;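 also: luciferase signal from cell-cell fusion driven by HIV-1 clade B AD8 Env; potency is for inhibitors of fusion seen as a drop in luminescence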
# P388/ADR = assay: cells; type: functional; conditions: Mus musculus
# SN12K1 = assay: cells; type: functional; conditions: Homo sapiens
# P388 = assay: cells; type: functional; conditions: Mus musculus
smiles,measurement,setting,value
O=C(Cn1cnc2c(nnn2-c2ccccc2)c1=O)NCc1ccc(F)cc1,IC50,[1],6.76 µM (active)
c1ccc(CCN2CCN(c3ncnc4c3cnn4-c3ccccc3)CC2)cc1,EC50,[2],2.38 µM (active)
same,CC50,[3],> 40 µM (active)
same,EC50,[4],> 30 µM (not active)
same,IC50,[5],30.2 µM (active)
CC(=O)Nc1ccc(NC(=O)Cn2c(-c3ccc(F)cc3)cnc2SCC(=O)Nc2c(C)cccc2C)cc1,IC50,SUMO-activating enzyme,61.6 µM (active)
same,AC50,Cytochrome P450 2C9,17.8 µM (inconclusive)
Cc1cc(-c2nn3c(-c4ccccc4)nnc3s2)c2ccccc2n1,IC50,Estrogen receptor,21.6 µM (active)
same,IC50,[6],> 100 µM (inactive)
same,IC50,[7],> 100 µM (not active)
same,IC50,H9c2,> 79 µM (inactive)
COc1ccccc1CCNC(=O)C(=O)NCCC1CCCCN1S(=O)(=O)c1cccs1 (stereo unspecified),CC50,[8],36.7 µM (active)
same,IC50,Protein Wnt-3a,12.3 µM (active)
S=C(Nc1ccccc1)N1CCC(Cc2ccccc2)CC1,IC50,Protein Wnt-3a,18 µM (active)
CC1CCCCC1NS(=O)(=O)c1ccc(S(=O)(=O)NCc2ccncc2)cc1 (stereo unspecified),AC50,INS1,3.4 µM (active)
same,IC50,Protein Wnt-3a,1.43 µM (active)
COC(=O)[C@H]1C[C@H]2CC[C@H](O)C[C@H]2N1CC1CC1,AC50,Cytochrome P450 3A4,25.1 µM (inconclusive)
COc1ccc(NS(=O)(=O)c2ccc3oc(SC(C)C(N)=O)nc3c2)cc1 (stereo unspecified),EC50,HEK293 [9],6.14 µM (active)
same,IC50,HEK293 [10],> 20 µM (inactive)
same,IC50,HEK293 [11],> 20 µM (inactive)
same,IC50,HEK293 [12],20 µM (inactive)
O=C(Nc1ccccc1-c1nnn(CC(=O)N2CCCc3ccccc32)n1)c1ccc(Cl)cc1,IC50,[6],> 100 µM (inactive)
same,IC50,[7],> 100 µM (not active)
CC1CCCN(C(C(=O)Nc2ccc(C(C)C)cc2)c2ccc3c(c2)OCO3)C1 (stereo unspecified),IC50,[6],> 100 µM (inactive)
same,IC50,[7],> 100 µM (not active)
COc1cc(OC)cc(C(=O)Nc2nnc(-c3cccnc3)o2)c1,AC50,[13],97.6 µM (active)
COc1ccc(S(=O)(=O)N2CCOC2CNC(=O)C(=O)NCCc2c[nH]c3ccccc23)cc1 (stereo unspecified),IC50,[6],> 100 µM (inactive)
same,IC50,[7],> 100 µM (not active)
COc1cc(/C=C(/C(=O)c2cccs2)c2nc3ccccc3[nH]2)ccc1O,EC50,HEK293 [9],12.1 µM (active)
same,IC50,HEK293 [10],2.96 µM (active)
same,IC50,HEK293 [11],> 20 µM (inactive)
same,IC50,HEK293 [12],4.02 µM (active)
same,AC50,INS1,18 µM (active)
Oc1ccc(C=NNc2ccccn2)c(O)c1,IC50,Nonstructural protein 1,2.71 µM (active)
same,AC50,HEK293 [14],10.4 µM (active)
same,IC50,[15],27 µM (active)
same,AC50,[16],8.53 µM (active)
same,AC50,[17],8.15 µM (active)
same,AC50,[18],5.5 µM (active)
Cc1cccc(CCNC(=O)C2CCCN(c3ncnc4c3nc3n4CCCCC3)C2)c1 (stereo unspecified),IC50,[5],11.8 µM (active)
CCOc1ncccc1C(=O)OCC(=O)Nc1nnc(-c2ccccc2)o1,AC50,[13],107 µM (active)
CC(C)=CC(=O)OC1C2C(C)=CC(=O)C(O)C2(C)C2C3(O)OCC24C(CC(=O)OC14)C(C)C3O (stereo unspecified),GI50,P388/ADR,0.102 µM (active)
same,GI50,SN12K1,0.02 µM (active)
same,GI50,P388,0.000946 µM (active)
NCC(Cl)C(O)c1c[nH]c(N)n1 (stereo unspecified),GI50,P388/ADR,0.232 µM (active)
same,GI50,SN12K1,0.507 µM (active)
same,GI50,P388,0.0353 µM (active)
O=C(NC(Cc1ccc(Cl)cc1)C(=O)O)c1ccc(I)cc1 (stereo unspecified),GI50,P388/ADR,54.8 µM (inactive)
same,GI50,SN12K1,> 100 µM (inactive)
same,GI50,P388,64.7 µM (inactive)
O=C(N/N=C/c1ccc2c(c1)OCO2)c1cc(-c2ccco2)nc2ccccc12,IC50,[1],10.8 µM (active)
COc1cc(C2c3cc4c(cc3[C@@H](Nc3cccc(CO)c3)C3COC(=O)[C@H]23)OCO4)cc(OC)c1O (stereo partly specified),GI50,P388/ADR,0.124 µM (active)
same,GI50,SN12K1,0.0925 µM (active)
same,GI50,P388,< 0.01 µM (active)
C/C(CC(=O)NC1CCCCC1)=N\NC(=O)Cc1ccc(-c2ccccc2)cc1,IC50,[1],7.87 µM (active)
CCCCN1CCCCC1C(=O)Nc1c(C)cccc1C (stereo unspecified) [BUPIVACAINE HYDROCHLORIDE],AC50,Cytochrome P450 3A4,31.6 µM (inconclusive)

# Source: ChEMBL document CHEMBL1201862, “PubChem BioAssay data set” (2004)
